In ChEMBL document CHEMBL3351890, “Azapropellanes with anti-influenza a virus activity” (ACS Med Chem Lett, 2014):

Assays:
[1] = Antiviral activity against Influenza A virus A/HK/7/87 (H3N2) infected in MDCK cells assessed as cell viability by MTS assay; assay type: functional, cell-based, Influenza A virus (A/Hong Kong/7/1987(H3N2))
[2] = Cytotoxicity against MDCK cells assessed as cell morphology by microscopical examination; assay type: cell-based, Canis lupus familiaris; conditions: dog
[3] = Antiviral activity against Influenza A virus A/HK/7/87 (H3N2) infected in MDCK cells assessed as inhibition of virus-induced cytopathic effect; assay type: functional, cell-based, Influenza A virus (A/Hong Kong/7/1987(H3N2))
Influenza A virus [4] = test: Antiviral activity against Influenza A virus A/PR/8/34 (H1N1) infected in MDCK cells assessed as inhibition of virus-induced cytopathic effect; assay type: functional, organism-based; conditions: A/Puerto Rico/8/1934(H1N1)
[5] = target: Matrix protein 2 (Influenza A virus) (UniProt P06821); test: Inhibition of influenza A virus wild type M2 proton channel expressed in Xenopus oocytes at 100 uM for 2 mins by two-electrode voltage clamp analysis; assay type: cell-based
Sequence of Matrix protein 2 (Influenza A virus) (P06821 whole entry): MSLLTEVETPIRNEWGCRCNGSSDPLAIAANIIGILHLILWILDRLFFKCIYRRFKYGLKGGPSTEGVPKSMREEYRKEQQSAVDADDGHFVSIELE

[6] = Cytotoxicity against MDCK cells assessed as cell viability after 72 hrs by MTS assay; assay type: cell-based, Canis lupus familiaris; conditions: dog
Influenza A virus [7] = test: Antiviral activity against Influenza A virus A/PR/8/34 (H1N1) infected in MDCK cells assessed as cell viability by MTS assay; assay type: functional, organism-based; conditions: A/Puerto Rico/8/1934(H1N1)

Compound: C1=CC[C@]23CCCC[C@@]2(C1)CNC3
- EC50 [1]: > 100 µM
- MCC [2]: > 100 µM
- EC50 [3]: > 100 µM
- EC50 (Influenza A virus [4]): 30 µM
- inhibition [5]: 19.1%
- CC50 at 72 h [6]: > 100 µM
- EC50 (Influenza A virus [7]): 14 µM

Compound: C1CC23CCCC2(C1)CNC3 (stereo not given)
- EC50 [1]: > 100 µM
- MCC [2]: > 100 µM
- EC50 [3]: > 100 µM
- EC50 (Influenza A virus [4]): > 100 µM
- inhibition [5]: 47.1%
- CC50 at 72 h [6]: > 100 µM
- EC50 (Influenza A virus [7]): > 100 µM

Compound: C=C1CC23CCCC2(CNC3)C1 (stereo not given)
- EC50 [1]: > 100 µM
- MCC [2]: > 100 µM
- EC50 [3]: > 100 µM
- EC50 (Influenza A virus [4]): > 100 µM
- inhibition [5]: 29.9%
- CC50 at 72 h [6]: > 100 µM
- EC50 (Influenza A virus [7]): > 100 µM

Compound: C1CC[C@]23CCCC[C@@]2(C1)CNC3
- EC50 [1]: > 100 µM
- MCC [2]: > 100 µM
- EC50 [3]: > 100 µM
- EC50 (Influenza A virus [4]): 5.9 µM
- CC50 at 72 h [6]: > 100 µM
- EC50 (Influenza A virus [7]): 13 µM

Compound: C=C1CC23CC=CCC2(CNC3)C1 (stereo not given)
- EC50 [1]: > 100 µM
- MCC [2]: > 100 µM
- EC50 [3]: > 100 µM
- EC50 (Influenza A virus [4]): 45 µM
- inhibition [5]: 14.9%
- CC50 at 72 h [6]: > 100 µM
- EC50 (Influenza A virus [7]): 43 µM

Compound: N=C(N)N1C[C@@]23CC=CC[C@@]2(CCC3)C1
- EC50 [1]: > 100 µM
- MCC [2]: > 100 µM
- EC50 [3]: > 100 µM
- EC50 (Influenza A virus [4]): > 100 µM
- CC50 at 72 h [6]: > 100 µM
- EC50 (Influenza A virus [7]): > 100 µM

Compound: C1=CC2C3C4C5C=CC4C24CNCC54C13
- MCC [2]: > 100 µM
- EC50 [3]: 14 µM
- EC50 (Influenza A virus [4]): 16 µM
- CC50 at 72 h [6]: > 100 µM

Compound: CC1=C(C)C[C@]23CNC[C@@]2(C1)CC(C)=C(C)C3
- EC50 [1]: > 100 µM
- MCC [2]: > 100 µM
- EC50 [3]: > 100 µM
- EC50 (Influenza A virus [4]): 7 µM
- CC50 at 72 h [6]: > 100 µM
- EC50 (Influenza A virus [7]): 5.6 µM

Compound: N=C(N)N1CC23CCCC2(CCC3)C1 (stereo not given)
- EC50 [1]: > 100 µM
- MCC [2]: 54 µM
- EC50 [3]: > 100 µM
- EC50 (Influenza A virus [4]): > 100 µM
- CC50 at 72 h [6]: 100 µM
- EC50 (Influenza A virus [7]): > 100 µM

Compound: C=C1CC23CNCC2(C1)CC(=C)C3 (stereo not given)
- EC50 [1]: > 100 µM
- MCC [2]: > 100 µM
- EC50 [3]: > 100 µM
- EC50 (Influenza A virus [4]): < 0.8 µM
- inhibition [5]: 29.3%
- CC50 at 72 h [6]: > 100 µM
- EC50 (Influenza A virus [7]): < 0.8 µM

Compound: C=C1CC23CC(=C)CC2(C1)CN(C(=N)N)C3 (stereo not given)
- EC50 [1]: > 100 µM
- MCC [2]: 16 µM
- EC50 [3]: > 100 µM
- EC50 (Influenza A virus [4]): > 100 µM
- CC50 at 72 h [6]: 20 µM
- EC50 (Influenza A virus [7]): > 100 µM

Compound: CC1CC23CC(C)CC2(C1)CN(C(=N)N)C3 (stereo not given)
- EC50 [1]: > 100 µM
- MCC [2]: > 100 µM
- EC50 [3]: > 100 µM
- EC50 (Influenza A virus [4]): 2 µM
- inhibition [5]: 8.8%
- CC50 at 72 h [6]: > 20 µM
- EC50 (Influenza A virus [7]): 1.6 µM

Compound: C1=CC[C@]23CC=CC[C@@]2(C1)CNC3
- EC50 [1]: > 100 µM
- MCC [2]: > 100 µM
- EC50 [3]: > 100 µM
- EC50 (Influenza A virus [4]): 38 µM
- CC50 at 72 h [6]: > 100 µM
- EC50 (Influenza A virus [7]): 30 µM

Compound: CC1CC23CNCC2(C1)CC(C)C3 (stereo not given)
- EC50 [1]: > 100 µM
- MCC [2]: > 100 µM
- EC50 [3]: > 100 µM
- EC50 (Influenza A virus [4]): 24 µM
- inhibition [5]: 58.7%
- CC50 at 72 h [6]: > 100 µM
- EC50 (Influenza A virus [7]): 20 µM

Compound: C1=CC[C@]23CCC[C@@]2(C1)CNC3
- EC50 [1]: > 100 µM
- MCC [2]: > 100 µM
- EC50 [3]: > 100 µM
- EC50 (Influenza A virus [4]): 70 µM
- CC50 at 72 h [6]: > 100 µM
- EC50 (Influenza A virus [7]): 56 µM
